In patent US7820439B2, “In vitro generation of GABAergic neurons from pluripotent stem cells” (Reliance Life Sciences PVT Ltd., priority 2003, dated 2010):

Tested on: neuronal progenitor cells derived from murine ES cells
Test: Differentiation of neuronal progenitor cells into GABAergic neurons in differentiation media containing Ara-C
Assay type: cell-based
Protocol: The expanded neuronal progenitor cells were differentiated by culturing the cells in a differentiation media containing Neurobasal A medium (Gibco), FCS (10-20%) (HYCLONE), and B27 supplement (2-10%) (Gibco), but no β-FGF. Additionally, the differentiation media contained factors to enhance GABAergic neuron yield, preferably Ara-C (Sigma Chemical Co. USA). […] After 3 days of culture in the differentiation media containing Ara-C, the cells were grown in the same media without Ara-C for 8, 12, or 16 days. When the neuronal progenitor cells were cultured in differentiation media containing Ara-C for 3 days, and the cells were then grown in differentiation media without Ara-C for 16 days, at least about 60% of the neuronal progenitor cells differentiated into GABAergic neurons (FIG. 6).
The differentiated neuronal cell types generated according to the present disclosure were evaluated both by the overall morphology of the cells, as well as the phenotypes identified by immunoflourescence. […]
The cells were then incubated overnight at 4° C. with a primary antibody (antibody dilution was made in 1% BSA). […] The chamber slides were observed under fluorescence microscope to evaluate the immunopositive cells in the different stages of differentiation. […]

**Q.** With cytosine β-d-Arabino furanoside [Ara-C] as the substance, how does the “percentage of GABAergic neurons in the neuronal population derived from murine ES cells” value (Ara-C 20 ug/ml in differentiation media) read?
**A.** increased the percentage of GABAergic neurons

**Q.** And the “neuronal progenitor cells differentiated into GABAergic neurons” value (differentiation media containing Ara-C for 3 days, then without Ara-C for 16 days (FIG. 6))?
**A.** at least 60%
